Results: US8003785B2 (Takeda Pharmaceutical Company Limited, priority 2008, dated 2011)

Each compound was assayed against T1, PLK1 (Homo sapiens, UniProt P53350) (assay: Biochemical Characterization Assay: HTRF kinase assay, GST-PLK1 phosphorylation of GST-p53). Details: GST-PLK1, GST-p53 substrate, ATP.
T1 construct: Full-length, active GST-PLK1 is purified from Sf9 insect cells; made in house; host or cells: Sf9 insect cells
T1 sequence (P53350 whole entry): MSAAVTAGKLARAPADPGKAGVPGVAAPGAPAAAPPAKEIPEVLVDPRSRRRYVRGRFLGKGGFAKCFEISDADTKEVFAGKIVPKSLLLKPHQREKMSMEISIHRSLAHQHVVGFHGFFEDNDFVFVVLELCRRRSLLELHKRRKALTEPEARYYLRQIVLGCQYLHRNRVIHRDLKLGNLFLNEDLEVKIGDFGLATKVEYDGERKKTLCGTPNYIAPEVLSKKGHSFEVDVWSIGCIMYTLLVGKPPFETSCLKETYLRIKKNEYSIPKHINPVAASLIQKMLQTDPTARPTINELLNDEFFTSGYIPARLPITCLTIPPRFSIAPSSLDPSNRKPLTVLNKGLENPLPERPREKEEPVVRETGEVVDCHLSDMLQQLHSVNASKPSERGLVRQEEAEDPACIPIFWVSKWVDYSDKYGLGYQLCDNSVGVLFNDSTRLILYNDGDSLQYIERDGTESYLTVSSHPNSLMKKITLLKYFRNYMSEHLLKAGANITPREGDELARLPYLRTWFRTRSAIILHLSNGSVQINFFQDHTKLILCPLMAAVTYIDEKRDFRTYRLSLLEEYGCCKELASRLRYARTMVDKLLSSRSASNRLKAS
How it was run: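 Full-length active GST-PLK1 (Sf9, 3 ug/mL) phosphorylated full-length GST-p53 (E. coli) in Kinase Assay Buffer for 35 min at 37 °C. Stopped with EDTA; phospho-p53 detected by HTRF with anti-phospho-p53, Eu-anti-rabbit and APC-anti-GST antibodies.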
COc1cc(C(=O)N2CCCCC2)ccc1Nc1ncc2c(n1)N(C1CCCC1)CC(F)(F)C(=O)N2C [Example I-126, 9-cyclopentyl-7,7-difluoro-2-[2-methoxy-4-(piperidine-1-carbonyl)-phenylamino]-5-methyl-5,7,8,9-tetrahydro-pyrimido[4,5-b][1,4]diazepin-6-one] gave an IC50 of 51 to 500 nM.
COc1cc(C(=O)N2CCOCC2)ccc1Nc1ncc2c(n1)N(C1CCCC1)CC(F)(F)C(=O)N2C [Example I-127, 9-cyclopentyl-7,7-difluoro-2-[2-methoxy-4-(morpholine-4-carbonyl)-phenylamino]-5-methyl-5,7,8,9-tetrahydro-pyrimido[4,5-b][1,4]diazepin-6-one] showed an IC50 of 1 to 50 nM.
COc1cc(C(=O)N2CCN(C)CC2)ccc1Nc1ncc2c(n1)N(C1CCCC1)CC(F)(F)C(=O)N2C [Example I-128, 9-cyclopentyl-7,7-difluoro-2-[2-methoxy-4-(4-methyl-piperazine-1-carbonyl)-phenylamino]-5-methyl-5,7,8,9-tetrahydro-pyrimido[4,5-b][1,4]diazepin-6-one] showed an IC50 of 1 to 50 nM.
With COc1cc(C(=O)Nc2ccncc2)ccc1Nc1ncc2c(n1)N(C1CCCC1)CC(F)(F)C(=O)N2C [Example I-129, 4-(9-cyclopentyl-7,7-difluoro-5-methyl-6-oxo-6,7,8,9-tetrahydro-5H-pyrimido[4,5-b][1,4]diazepin-2-ylamino)-3-methoxy-N-pyridin-4-yl-benzamide] the IC50 was 1 to 50 nM.
For COc1cc(C(=O)Nc2cccnc2)ccc1Nc1ncc2c(n1)N(C1CCCC1)CC(F)(F)C(=O)N2C [Example I-130, 4-(9-cyclopentyl-7,7-difluoro-5-methyl-6-oxo-6,7,8,9-tetrahydro-5H-pyrimido[4,5-b][1,4]diazepin-2-ylamino)-3-methoxy-N-pyridin-3-yl-benzamide], the IC50 was 1 to 50 nM.
With NC(=O)c1ccc(Nc2ncc3c(n2)N(C2CCCC2)CC(F)(F)C(=O)N3)cc1 [Example I-132, 4-(9-cyclopentyl-7,7-difluoro-6-oxo-6,7,8,9-tetrahydro-5H-pyrimido[4,5-b][1,4]diazepin-2-ylamino)-benzamide] the IC50 was > 5000 nM.
For CNC(=O)c1ccc(Nc2ncc3c(n2)N(C2CCCC2)CC(F)(F)C(=O)N3)cc1 [Example I-133, 4-(9-cyclopentyl-7,7-difluoro-6-oxo-6,7,8,9-tetrahydro-5H-pyrimido[4,5-b][1,4]diazepin-2-ylamino)-N-methyl-benzamide], the IC50 was 500 to 5000 nM.
Work on CN1CCC(NC(=O)c2ccc(Nc3ncc4c(n3)N(C3CCCC3)CC(F)(F)C(=O)N4)cc2)CC1 [Example I-134, 4-(9-cyclopentyl-7,7-difluoro-6-oxo-6,7,8,9-tetrahydro-5H-pyrimido[4,5-b][1,4]diazepin-2-ylamino)-N-(1-methyl-piperidin-4-yl)-benzamide] yielded an IC50 of 51 to 500 nM.
CN(C)CCCNC(=O)c1ccc(Nc2ncc3c(n2)N(C2CCCC2)CC(F)(F)C(=O)N3)cc1 [Example I-135, 4-(9-cyclopentyl-7,7-difluoro-6-oxo-6,7,8,9-tetrahydro-5H-pyrimido[4,5-b][1,4]diazepin-2-yl-amino)-N-(3-dimethyl-amino-propyl)-benzamide] showed an IC50 of 500 to 5000 nM.
For O=C(NC1CCOCC1)c1ccc(Nc2ncc3c(n2)N(C2CCCC2)CC(F)(F)C(=O)N3)cc1 [Example I-136, 4-(9-cyclopentyl-7,7-difluoro-6-oxo-6,7,8,9-tetrahydro-5H-pyrimido[4,5-b][1,4]diazepin-2-ylamino)-N-(tetrahydro-pyran-4-yl)-benzamide], the IC50 was 500 to 5000 nM.
COc1cc(C(=O)NC2CCN(C)CC2)ccc1Nc1ncc2c(n1)N(C1CCCC1)CC(F)(F)C(=O)N2 [Example I-137, 4-(9-cyclopentyl-7,7-difluoro-6-oxo-6,7,8,9-tetrahydro-5H-pyrimido[4,5-b][1,4]diazepin-2-ylamino)-3-methoxy-N-(1-methyl-piperidin-4-yl)-benzamide] was tested, and the IC50 was 51 to 500 nM.
CCN1C(=O)C(F)(F)CN(C2CCCC2)c2nc(Nc3ccc(C(N)=O)cc3)ncc21 [Example I-139, 4-(9-cyclopentyl-5-ethyl-7,7-difluoro-6-oxo-6,7,8,9-tetrahydro-5H-pyrimido[4,5-b][1,4]diazepin-2-ylamino)-benzamide] gave an IC50 of 500 to 5000 nM.
Compound CCN1C(=O)C(F)(F)CN(C2CCCC2)c2nc(Nc3ccc(C(=O)NC)cc3)ncc21 [Example I-140, 4-(9-cyclopentyl-5-ethyl-7,7-difluoro-6-oxo-6,7,8,9-tetrahydro-5H-pyrimido[4,5-b][1,4]diazepin-2-ylamino)-N-methyl-benzamide] has an IC50 of 500 to 5000 nM.
Compound CCN1C(=O)C(F)(F)CN(C2CCCC2)c2nc(Nc3ccc(C(=O)NC4CCN(C)CC4)cc3)ncc21 [Example I-141, 4-(9-cyclopentyl-5-ethyl-7,7-difluoro-6-oxo-6,7,8,9-tetrahydro-5H-pyrimido[4,5-b][1,4]diazepin-2-ylamino)-N-(1-methyl-piperidin-4-yl)-benzamide] has an IC50 of 51 to 500 nM.
Work on CCN1C(=O)C(F)(F)CN(C2CCCC2)c2nc(Nc3ccc(C(=O)NCCCN(C)C)cc3)ncc21 [Example I-142, 4-(9-cyclopentyl-5-ethyl-7,7-difluoro-6-oxo-6,7,8,9-tetrahydro-5H-pyrimido[4,5-b][1,4]diazepin-2-yl-amino)-N-(3-dimethyl-amino-propyl)-benzamide] yielded an IC50 of 500 to 5000 nM.
CCN1C(=O)C(F)(F)CN(C2CCCC2)c2nc(Nc3ccc(C(=O)NC4CCOCC4)cc3)ncc21 [Example I-143, 4-(9-cyclopentyl-5-ethyl-7,7-difluoro-6-oxo-6,7,8,9-tetrahydro-5H-pyrimido[4,5-b][1,4]diazepin-2-ylamino)-N-(tetrahydro-pyran-4-yl)-benzamide] showed an IC50 of 500 to 5000 nM.
CCCN1C(=O)C(F)(F)CN(C2CCCC2)c2nc(Nc3ccc(C(N)=O)cc3)ncc21 [Example I-145, 4-(9-cyclopentyl-7,7-difluoro-6-oxo-5-propyl-6,7,8,9-tetrahydro-5H-pyrimido[4,5-b][1,4]diazepin-2-ylamino)-benzamide] gave an IC50 of 500 to 5000 nM.
For CCCN1C(=O)C(F)(F)CN(C2CCCC2)c2nc(Nc3ccc(C(=O)NC)cc3)ncc21 [Example I-146, 4-(9-cyclopentyl-7,7-difluoro-6-oxo-5-propyl-6,7,8,9-tetrahydro-5H-pyrimido[4,5-b][1,4]diazepin-2-ylamino)-N-methyl-benzamide], the IC50 was 500 to 5000 nM.
CCCN1C(=O)C(F)(F)CN(C2CCCC2)c2nc(Nc3ccc(C(=O)NC4CCN(C)CC4)cc3)ncc21 [Example I-147, 4-(9-cyclopentyl-7,7-difluoro-6-oxo-5-propyl-6,7,8,9-tetrahydro-5H-pyrimido[4,5-b][1,4]diazepin-2-ylamino)-N-(1-methyl-piperidin-4-yl)-benzamide] gave an IC50 of 51 to 500 nM.
CCCN1C(=O)C(F)(F)CN(C2CCCC2)c2nc(Nc3ccc(C(=O)NCCCN(C)C)cc3)ncc21 [Example I-148, 4-(9-cyclopentyl-7,7-difluoro-6-oxo-5-propyl-6,7,8,9-tetrahydro-5H-pyrimido[4,5-b][1,4]diazepin-2-yl-amino)-N-(3-dimethyl-amino-propyl)-benzamide] showed an IC50 of 500 to 5000 nM.
Work on CCCN1C(=O)C(F)(F)CN(C2CCCC2)c2nc(Nc3ccc(C(=O)NC4CCOCC4)cc3)ncc21 [Example I-149, 4-(9-cyclopentyl-7,7-difluoro-6-oxo-5-propyl-6,7,8,9-tetrahydro-5H-pyrimido[4,5-b][1,4]diazepin-2-ylamino)-N-(tetrahydro-pyran-4-yl)-benzamide] yielded an IC50 of 500 to 5000 nM.
COc1cc(C(=O)NC2CCN(C)CC2)ccc1Nc1ncc2c(n1)N(C1CCCC1)CC(F)(F)C(=O)N2CC(F)(F)F [Example I-150, 4-[9-cyclopentyl-7,7-difluoro-6-oxo-5-(2,2,2-trifluoro-ethyl)-6,7,8,9-tetrahydro-5H-pyrimido[4,5-b][1,4]diazepin-2-ylamino]-3-methoxy-N-(1-methyl-piperidin-4-yl)-benzamide] showed an IC50 of 500 to 5000 nM.
With COc1cc(C(N)=O)ccc1Nc1ncc2c(n1)N(C1CCCC1)CC(F)(F)C(=O)N2 [Example I-152, 4-(9-cyclopentyl-7,7-difluoro-6-oxo-6,7,8,9-tetrahydro-5H-pyrimido[4,5-b][1,4]diazepin-2-ylamino)-3-methoxy-benzamide] the IC50 was 500 to 5000 nM.
CNC(=O)c1ccc(Nc2ncc3c(n2)N(C2CCCC2)CC(F)(F)C(=O)N3)c(OC)c1 [Example I-153, 4-(9-cyclopentyl-7,7-difluoro-6-oxo-6,7,8,9-tetrahydro-5H-pyrimido[4,5-b][1,4]diazepin-2-ylamino)-3-methoxy-N-methyl-benzamide] showed an IC50 of 500 to 5000 nM.
For COc1cc(C(=O)NCCCN(C)C)ccc1Nc1ncc2c(n1)N(C1CCCC1)CC(F)(F)C(=O)N2 [Example I-154, 4-(9-cyclopentyl-7,7-difluoro-6-oxo-6,7,8,9-tetrahydro-5H-pyrimido[4,5-b][1,4]diazepin-2-ylamino)-N-(3-dimethylamino-propyl)-3-methoxy-benzamide], the IC50 was 500 to 5000 nM.
In the case of COc1cc(C(=O)NC2CCOCC2)ccc1Nc1ncc2c(n1)N(C1CCCC1)CC(F)(F)C(=O)N2 [Example I-155, 4-(9-cyclopentyl-7,7-difluoro-6-oxo-6,7,8,9-tetrahydro-5H-pyrimido[4,5-b][1,4]diazepin-2-ylamino)-3-methoxy-N-(tetrahydro-pyran-4-yl)-benzamide], the IC50 is reported as > 5000 nM.
Work on CCN1C(=O)C(F)(F)CN(C2CCCC2)c2nc(Nc3ccc(C(N)=O)cc3OC)ncc21 [Example I-157, 4-(9-cyclopentyl-5-ethyl-7,7-difluoro-6-oxo-6,7,8,9-tetrahydro-5H-pyrimido[4,5-b][1,4]diazepin-2-yl-amino)-3-methoxy-benzamide] yielded an IC50 of 500 to 5000 nM.
Work on CCN1C(=O)C(F)(F)CN(C2CCCC2)c2nc(Nc3ccc(C(=O)NC)cc3OC)ncc21 [Example I-158, 4-(9-cyclopentyl-5-ethyl-7,7-difluoro-6-oxo-6,7,8,9-tetrahydro-5H-pyrimido[4,5-b][1,4]diazepin-2-ylamino)-3-methoxy-N-methyl-benzamide] yielded an IC50 of 500 to 5000 nM.
